# Reference: ChEMBL document CHEMBL1201862, “PubChem BioAssay data set” (2004)
# Activity calls are given as the source filed them.
# Legend:
# [1] = microbe, parasite or virus in culture; type: functional; details: Mycobacterium tuberculosis
# [2] = molecular target: T1, Carboxy-terminal domain RNA polymerase II polypeptide A small phosphatase 1 (Homo sapiens, UniProt Q9GZU7); assay: CTDSP1 inhibitors, concentration-response, biochemical, absorbance readout, ultra-high-throughput screen actives (AID 540297); type: functional
# T1 sequence (Q9GZU7 whole entry): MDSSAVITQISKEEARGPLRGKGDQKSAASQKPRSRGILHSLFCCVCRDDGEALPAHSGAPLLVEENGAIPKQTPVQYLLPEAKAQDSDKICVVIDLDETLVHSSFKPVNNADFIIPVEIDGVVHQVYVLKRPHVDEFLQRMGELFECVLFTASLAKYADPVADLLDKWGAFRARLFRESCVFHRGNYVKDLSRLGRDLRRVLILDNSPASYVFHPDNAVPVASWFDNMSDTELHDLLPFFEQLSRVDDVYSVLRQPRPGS
# [3] = molecular target: T2, RNA-binding protein pos-1 (Caenorhabditis elegans, UniProt G5EF15); assay: disruptors of C. elegans POS-1 RNA interaction – biochemical, fluorescence polarization, dose response (AID 1964);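 note: purified POS-1 fused to maltose binding protein made in E. coli; potency of compounds blocking POS-1 binding to fluorescent RNA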
# T2 sequence (G5EF15 whole entry): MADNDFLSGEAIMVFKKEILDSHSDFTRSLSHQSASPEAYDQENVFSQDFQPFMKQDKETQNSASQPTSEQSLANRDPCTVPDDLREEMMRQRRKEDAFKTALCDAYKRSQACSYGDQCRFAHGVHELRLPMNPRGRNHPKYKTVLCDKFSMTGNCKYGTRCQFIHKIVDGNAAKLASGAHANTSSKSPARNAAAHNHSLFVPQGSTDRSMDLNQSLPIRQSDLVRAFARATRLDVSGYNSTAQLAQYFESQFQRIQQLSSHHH
# [4] = molecular target: T3, Zinc finger protein mex-5 (Caenorhabditis elegans, UniProt Q9XUB2); assay: potency of MEX-5 RNA-binding blockers – biochemical, C. elegans, fluorescence polarization, dose response (AID 1960)
# T3 sequence (Q9XUB2 whole entry): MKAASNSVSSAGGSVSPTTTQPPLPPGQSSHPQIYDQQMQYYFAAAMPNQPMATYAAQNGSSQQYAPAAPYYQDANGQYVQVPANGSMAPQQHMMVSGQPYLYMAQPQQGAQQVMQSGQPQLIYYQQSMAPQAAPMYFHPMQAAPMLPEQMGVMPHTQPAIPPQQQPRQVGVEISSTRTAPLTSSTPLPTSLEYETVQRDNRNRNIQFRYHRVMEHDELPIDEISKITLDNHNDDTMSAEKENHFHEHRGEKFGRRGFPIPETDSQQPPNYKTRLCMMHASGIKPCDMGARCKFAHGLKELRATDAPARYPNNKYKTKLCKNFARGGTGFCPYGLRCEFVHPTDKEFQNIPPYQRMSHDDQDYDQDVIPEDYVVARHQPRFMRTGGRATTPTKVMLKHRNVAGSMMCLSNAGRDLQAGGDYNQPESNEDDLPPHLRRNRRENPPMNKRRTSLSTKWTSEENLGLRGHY
# H9c2 = assay: cells; type: functional, cell-based; details: Rattus norvegicus, H9c2, Myocardium;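 note: confirmatory concentration-response retest of ultra-high-throughput screening hits for modulation of myocardial damage; cell death induced by hydrogen peroxide oxidative stress; compound pretreatment for 60 min then peroxide exposure for 2 h; potency is for protecting the cells against peroxide damage rather than for killing them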
# [5] = Trypanosoma cruzi growth suppression in host cells – NIH3T3 host cells, beta-gal luminescence, confirmation (AID 2044); type: functional, cell-based;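 note: intracellular parasites grown in NIH/3T3 mouse fibroblasts as host cells; luminescent beta-galactosidase reporter signal from transgenic T. cruzi replicating inside host cells; inhibitors lower the luminescence signal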
# [6] = NIH3T3 cell viability loss – ATP luminescence, mouse fibroblasts, counter-screen, dose response (AID 2010); type: functional, cell-based;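 note: cells exposed to compound for about 90 hours before reading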
# cells = type: functional
# [7] = molecular target: T4, Polyadenylate-binding protein 1 (Homo sapiens, UniProt P11940); assay: MLLE binding blockers, Cy5 peptide tracer – biochemical, fluorescence polarization, Cy5-PAM2 peptide, secondary, miRNA deadenylation inhibitor project, dose response (AID 602260); type: functional; details: read-out: IC50_Mean
# T4 sequence (P11940 whole entry, the tested form may be a part): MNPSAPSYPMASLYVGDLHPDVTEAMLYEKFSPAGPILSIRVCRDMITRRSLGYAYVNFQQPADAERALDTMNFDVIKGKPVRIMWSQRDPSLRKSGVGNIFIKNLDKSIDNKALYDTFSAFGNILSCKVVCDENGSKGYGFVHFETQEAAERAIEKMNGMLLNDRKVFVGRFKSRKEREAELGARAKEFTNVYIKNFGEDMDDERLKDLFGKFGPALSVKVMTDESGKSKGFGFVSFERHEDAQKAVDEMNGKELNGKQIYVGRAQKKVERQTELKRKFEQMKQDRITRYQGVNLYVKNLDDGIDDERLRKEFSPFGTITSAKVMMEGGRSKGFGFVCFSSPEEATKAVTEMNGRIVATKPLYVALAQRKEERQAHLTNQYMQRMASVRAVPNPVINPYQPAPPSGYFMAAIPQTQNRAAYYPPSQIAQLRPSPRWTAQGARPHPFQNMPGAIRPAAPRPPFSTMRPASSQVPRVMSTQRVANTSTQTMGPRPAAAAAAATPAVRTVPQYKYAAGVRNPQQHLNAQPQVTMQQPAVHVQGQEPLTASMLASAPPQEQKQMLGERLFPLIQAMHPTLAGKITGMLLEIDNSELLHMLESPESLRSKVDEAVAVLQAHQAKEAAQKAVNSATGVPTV
# [8] = molecular target: T4, Polyadenylate-binding protein 1; assay: MLLE domain peptide-binding blockers, IC50 – biochemical, fluorescence polarization, FITC-PAM2 peptide, dose response (AID 602259); type: functional; details: read-out: IC50_Mean
# [9] = molecular target: T5, Short transient receptor potential channel 4 (Mus musculus, UniProt Q9QUQ5); assay: calcium entry via TRPC4 opening agents – cell-based, HEK293 TRPC4/mu-opioid, Fluo-4 calcium, dose response (AID 434937); type: functional
# T5 sequence (Q9QUQ5 whole entry): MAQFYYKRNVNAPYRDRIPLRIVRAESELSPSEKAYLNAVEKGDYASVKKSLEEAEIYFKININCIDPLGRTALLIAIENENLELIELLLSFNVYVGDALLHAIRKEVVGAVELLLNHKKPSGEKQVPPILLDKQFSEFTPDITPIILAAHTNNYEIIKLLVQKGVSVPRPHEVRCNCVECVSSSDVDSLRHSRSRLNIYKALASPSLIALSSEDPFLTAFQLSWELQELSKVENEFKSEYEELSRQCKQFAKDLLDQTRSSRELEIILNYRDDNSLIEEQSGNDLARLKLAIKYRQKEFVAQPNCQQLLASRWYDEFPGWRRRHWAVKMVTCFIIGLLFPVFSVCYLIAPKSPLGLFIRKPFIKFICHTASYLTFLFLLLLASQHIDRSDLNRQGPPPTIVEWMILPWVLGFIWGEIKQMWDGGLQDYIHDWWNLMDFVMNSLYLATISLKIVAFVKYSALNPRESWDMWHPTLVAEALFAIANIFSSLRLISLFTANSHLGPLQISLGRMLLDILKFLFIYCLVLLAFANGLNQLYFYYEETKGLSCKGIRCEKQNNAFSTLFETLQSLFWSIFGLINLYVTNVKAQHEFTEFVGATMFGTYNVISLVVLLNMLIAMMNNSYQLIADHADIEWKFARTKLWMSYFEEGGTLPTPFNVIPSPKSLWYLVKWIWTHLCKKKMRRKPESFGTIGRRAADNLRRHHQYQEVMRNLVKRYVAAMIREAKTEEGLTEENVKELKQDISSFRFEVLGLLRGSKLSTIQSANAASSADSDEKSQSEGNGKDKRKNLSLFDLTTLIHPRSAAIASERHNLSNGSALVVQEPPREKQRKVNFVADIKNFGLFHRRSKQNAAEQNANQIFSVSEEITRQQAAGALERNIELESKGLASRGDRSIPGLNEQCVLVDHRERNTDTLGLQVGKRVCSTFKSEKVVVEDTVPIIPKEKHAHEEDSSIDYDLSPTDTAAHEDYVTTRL
structure (smiles),measurement,setting,value
O=C(Nc1cccc(-c2csc(Nc3ccc(Cl)cc3)n2)c1)c1cccc(C(F)(F)F)c1,CC50,[1],20.6 µM (active)
Cc1nn(-c2cc(Cl)ccc2N)c(=O)c2ccccc12,IC50,[2],63.2 µM (active)
C=CCn1cc/c(=N\C=C(C#N)C#N)c2ccccc21,EC50,[3],> 300 µM (not active)
same,EC50,[4],> 300 µM (not active)
Cc1cc(=O)oc2cc(OCC(=O)N3CCN(C(=O)C4COc5ccccc5O4)CC3)c(Cl)cc12 (configuration not stated),IC50,H9c2,> 79 µM (inactive)
CC/N=c1\scc(-c2ccco2)n1/N=C/c1ccc(OC)c(O)c1,CC50,[1],> 40 µM (active)
N#CCC(=O)N/N=C/c1ccc(Sc2nc3ccccc3s2)o1,IC50,[2],9.4 µM (active)
NC(=S)N/N=C/c1ccccc1OCCSc1ccc(Cl)cc1,EC50,[5],224 nM (active)
same,CC50,[1],24.6 µM (active)
same,EC50,[6],> 60 µM (not active)
COc1cc(/C=N/NC(=O)c2ccncc2)ccc1OC(=O)c1cccc(F)c1,IC50,cells,0.48 µM (active)
C=C1c2cccc(OC)c2O[C@H](C(=O)OCC)[C@@H]1CCCCCC,IC50,[2],10.2 µM (active)
CC1C2C(C)N(C)C(=O)N(C)C2N(C)C(=O)N1C (configuration not stated),IC50,[7],> 66 µM (inactive)
same,IC50,[8],29.1 µM (inactive)
same,EC50,[3],25 µM (active)
same,EC50,[4],18.5 µM (active)
NC(=O)c1ccsc1NC(=O)COC(=O)Cc1nnc(O)c2ccccc12,IC50,H9c2,> 79 µM (inactive)
Cc1c(C(=O)N(C)C)sc2nc(-c3ccccn3)nc(O)c12,CC50,[1],> 40 µM (active)
same,IC50,cells,9.8 µM (active)
C[C@H]1OC[C@@H](C[N+](C)(C)C)O1,EC50,[9],188 nM (active)
O=C(C1CC(=O)N(c2ccc3c(c2)OCCO3)C1)N1CCN(c2cccc(C(F)(F)F)c2)CC1 (configuration not stated),CC50,[1],> 40 µM (active)
NC(=O)c1ccccc1OCC(=O)Nc1cccnc1Cl,IC50,H9c2,27.7 µM (active)
